Experimental data reported in patent US6074845A (priority 1999, dated 2000).
pEC50, pIC50, pKd: −log10 of the molar value. Ends that are not written are not given here.

Legend:
[1] = tested on: insulin-stimulated glycogen synthesis; details: activation of sensory nerves; cited from earlier work
[2] = tested on: ATP-sensitive potassium channel; details: rabbit mesenteric resistance arteries and rat basilar artery; cited from earlier work
[3] = molecular target: T1, BECRLR (bovine calcitonin receptor-like receptor) (Bos taurus, UniProt A6QP74); test: Competition binding, displacement of [125I] rADM from BECRLR membranes; details: BE-CRLR membranes; for pIC50: [125I] rADM
T1 construct: amplify the open reading frame of the novel bovine CRLR cDNA; expressed in transfected cells; also transient transfection
Protocol: (§1) Cells from BECRLR-293 were scraped into ice-cold PBS and centrifuged for 10 min at 1000× g at 4° C. The pellet was resuspended in 10 mM Tris-HCl, pH 7.4, 10 mM Na-EDTA and homogenized using a Dounce ground glass homogenizer. The homogenate was centrifuged for 20 min at 12,000× g at 4° C. and the resultant membrane pellet was resuspended in 50 mM Tris-HCl, pH 7.4, 10 mM MgCl2 and recentrifuged. The final pellet was resuspended in 50 mM Tris-HCl, pH 7.4, 10 mM MgCl2 and assayed immediately.
(§2) Saturation binding experiments were carried out using membranes prepared from BECRLR-293 cells pretreated in the absence or presence of ADM. The incubation mixture contained various concentrations of [^125 I] ADM (5 to 120 pM) and 40-60 μg of membrane protein in a final volume of 500 ul. Nonspecific binding was determined in the presence of 1 μM r ADM. After incubating for 30 min at 25° C., the reaction mixture was rapidly diluted with cold 0.9% NaCl and bound and free ligands were separated by filtration on glass fiber filters.
(§3) [^125 I] […] The specificity of [^125 I] rADM binding to BE-CRLR membranes was investigated by analyzing the displacement of this radioligand binding by ADM and related peptides.

[4] = molecular target: T1, BECRLR (bovine calcitonin receptor-like receptor); test: Inhibition of ADM-activated adenylyl cyclase activity (antagonism) in BECRLR-293 membranes; type: biochemical; details: BECRLR #8
Protocol: as §1, §3

[5] = infusion into humans and a variety of other species; cited from earlier work
[6] = molecular target: T1, BECRLR (bovine calcitonin receptor-like receptor); test: Adenylyl cyclase activity (activation) in BECRLR-expressing HEK293 cells/membranes; type: biochemical; design: adenylyl cyclase activity stimulation over basal: dose or concentration left out as unconfirmed; details: for additive effect between CGRP and ADM on adenylyl cyclase: CGRP combined with ADM, BECRLR #8; for adenylyl cyclase activity stimulation over basal: HEK293 cells transiently transfected; for pEC50 / activation of adenylyl cyclase activity over basal: stable clone BECRLR #8; for activation of adenylyl cyclase activity over basal: concentration-dependent
Text: A bovine endothelial cell cDNA library was constructed using the k-Zap cDNA synthesis kit (Stratagene, La Jolla, Calif.) following the standard protocol. The human CGRP receptor c-DNA-coding sequence was used as a probe for the isolation of CRLR clones from an endothelial cell library. The probe was radiolabled with [α^32 P] ATP by the random priming method and used to screen approximately 1×10^6 plaque-forming units of the endothelial CRLR cDNA library. Nylon filters (Hybond ) containing plaque lifts were hybridized at 42° in 5× SSC (SSC is 150 mM NaCl and 15 mM sodium citrate), 5× Denhardt's solution, 0.1% SDS and 20% formamide followed by autography. Hybridizing clones (8) were plaque purified, and the pBluescript-containing insert was rescued from the purified×phage by in vivo excision using the Exassist/Solar system (Stratagene) and was sequenced in both strands by the dideoxynucleotide chain termination reaction. Two oligonucleotide primers were designed to amplify the open reading frame of the novel bovine CRLR cDNA. PCR amplification was carried out. A recombinant of the novel bovine CRLR was produced by transfection in HEK-293 cells. Transfection was achieved by LipofectAMINE procedure (Life Technologies, Gaithersburg, Md.). Stable cell lines expressing this receptor were selected with G418 and screened for CGRP and ADM-dependent activation of adenylyl cyclase.
as §1
(§4) Membrane-bound adenylyl cyclase activity was determined. Membranes [40-60 ug protein] were incubated in triplicate tubes in buffer containing 50 mM Tris-HCl, pH 7.4, 10 mM MgCl2, 1.2 mM ATP, 1.0 μCi [α^32P]ATP, 0.1 mM cAMP, 2.8 mM phosphoenolpyruvate and 5.2 μg/ml myokinase in a final volume of 100 μl for 20 min at 30° C. The reactions were stopped with 1 ml of a solution containing 0.28 mM cAMP, 0.33 mM ATP and 22,000 dpm of [^3 H]cAMP. [^32 P]cAMP was separated using sequential chromatography as the rate of conversion of [(α^32 P]ATP to [^32 P]cAMP on Dowex and alumina columns (33). Adenylyl cyclase activities were determined in the absence (basal) or presence of various concentrations of rat ADM or hαCGRP (1 pM to 1 μM). The effect of ADM (22-52), ADM (26-52) and hαCGRP(8-37), on ADM-mediatedactivation of adenylyl cyclase was also determined.
(§5) HEK293 cells transiently transfected with this clone responded to CGRP and ADM […] by stimulating adenylyl cyclase activity (60-80% over basal). This clone has been stably expressed in HEK293 cells using the LipofectAMINE procedure and analyzed for CGRP and ADM-mediated adenylyl cyclase activity. One of the positive clones (BECRLR #8) was fully characterized. […] To investigate further the functional results described in this study, a binding study using [^125 I]rADM and [^125 I]CGRP was performed to identify the presence of binding sites for both peptides in BE-CRLR (#8) cell membranes. [^125 I] CGRP binding was very little and the affinity or number of binding sites was difficult to determine. […] The specificity of [^125 I] rADM binding to BE-CRLR membranes was investigated by analyzing the displacement of this radioligand binding by ADM and related peptides. Human and rat ADM displaced [^125 I] rADM binding with high affinity (IC50 values 2-4 nM).

[7] = tested on: CRLR coexpressed with RAMP 1; details: CRLR with RAMP 1; cited from earlier work
[8] = tested on: vector transfected HEK293 cell membranes; test: Adenylyl cyclase activity in vector transfected HEK293 cell membranes (control); type: biochemical, human
Protocol: as §4
HEK293 cells transiently transfected with this clone responded to CGRP and ADM […] by stimulating adenylyl cyclase activity (60-80% over basal). This clone has been stably expressed in HEK293 cells using the LipofectAMINE procedure and analyzed for CGRP and ADM-mediated adenylyl cyclase activity. One of the positive clones (BECRLR #8) was fully characterized. […]

[9] = tested on: insulin's effects on glucose metabolism; details: cited from earlier work
[10] = molecular target: T1, BECRLR (bovine calcitonin receptor-like receptor); test: Saturation / specific radioligand binding to BECRLR-293 membranes
Protocol: as §1
as §2, with “filters. In competition binding studies, the membranes were incubated with increasing concentrations of r ADM or CGRP (1 pM-1 uM) and 150 pM of [^125 I] r ADM for 30 min. at 25° C.” for “filters.”
as §5, with “Human and rat ADM displaced [^125 I] rADM binding with high affinity (IC50 values 2-4 nM).” left out

rat tissues = details: [125I] rat ADM; cited from earlier work
[11] = tested on: insulin secretion and blood glucose metabolism; details: cited from earlier work
NO-cGMP system = details: kidney, vascular EC, rabbit ventricular myocytes; cited from earlier work
[12] = tested on: CRLR co-expressed with RAMP2; details: cited from earlier work
[13] = tested on: rat vascular SMC and cardiomyocytes; details: cited from earlier work
[14] = tested on: vascular SMC, and bovine EC; details: cited from earlier work
[15] = injected intravenously into rats; cited from earlier work

T1 sequence (A6QP74 23-462): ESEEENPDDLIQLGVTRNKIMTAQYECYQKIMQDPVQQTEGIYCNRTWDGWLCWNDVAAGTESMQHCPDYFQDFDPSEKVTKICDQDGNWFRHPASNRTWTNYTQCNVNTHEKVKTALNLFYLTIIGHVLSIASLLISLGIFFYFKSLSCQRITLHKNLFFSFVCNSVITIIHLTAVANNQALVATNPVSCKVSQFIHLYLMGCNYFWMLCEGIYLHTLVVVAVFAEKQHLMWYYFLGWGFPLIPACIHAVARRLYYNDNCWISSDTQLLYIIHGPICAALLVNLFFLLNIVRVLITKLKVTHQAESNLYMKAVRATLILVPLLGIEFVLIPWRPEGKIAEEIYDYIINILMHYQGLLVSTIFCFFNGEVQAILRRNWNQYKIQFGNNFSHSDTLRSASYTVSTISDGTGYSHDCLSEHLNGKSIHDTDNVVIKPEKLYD
T1 sequence (O60895 43-175 partner): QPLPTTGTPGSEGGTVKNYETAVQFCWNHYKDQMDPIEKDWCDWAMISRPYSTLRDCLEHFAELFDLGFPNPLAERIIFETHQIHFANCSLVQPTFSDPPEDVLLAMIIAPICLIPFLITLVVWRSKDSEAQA

In the case of `COc1cc(CNC(=O)CCCC/C=C/C(C)C)ccc1O` [capsaicin], the insulin-stimulated glycogen synthesis [1] is given as “inhibits insulin-stimulated glycogen synthesis”.
In the case of `COc1ccc(Cl)cc1C(=O)NCCc1ccc(S(=O)(=O)NC(=O)NC2CCCCC2)cc1` [glibenclamide], the “inhibition of CGRP actions” value [2] is listed as “CGRP actions are inhibited by glibenclamide”.
For `C=C(C)[C@]12C[C@@H](C)[C@@]34O[C@](Cc5ccccc5)(O[C@@H]1[C@@H]3C=C(COC(=O)Cc1ccc(O)c(OC)c1)C[C@]1(O)C(=O)C(C)=C[C@@H]41)O2` [resiniferatoxin], the insulin-stimulated glycogen synthesis [1] is listed as “inhibits insulin-stimulated glycogen synthesis”.
In the case of “ADM(22-52): ADM receptor antagonist, fragment 22-52 of adrenomedullin”, the “displacement potency relative to ADM (fold less potent than ADM)” value ([3]; [125I] rADM displacement) was “approximately 15 fold” and the pIC50 [4] was 6.96.
With “ADM(26-52): ADM receptor antagonist, fragment 26-52 of adrenomedullin (LAHQIYQFTDKDKDNVAPRSKISPQGY; ends and bridges not checked; UniProt P35318 120-146, looked up, fragment)” the pIC50 [4] was < 5.00.
For Calcitonin gene-related peptide [CGRP], the “vasodilation, blood flow, blood pressure, heart rate” value [5] is given as “vasodilation, increased regional blood flow, hypotension and tachycardia”, the “additive effect between CGRP and ADM on adenylyl cyclase” value [6] is given as “no additive effect” and the “adenylyl cyclase activity stimulation over basal” value [6] is given as 60-80 % over basal. The pEC50 [6] was 8.55, the “activation of adenylyl cyclase activity over basal” value [6] was ~ 300 % over basal and the “response of expressed receptor” value [7] was “responds to CGRP”. The “activation of adenylyl cyclase in vector transfected membranes” value [8] was “did not respond”, the “glucose infusion rate needed to maintain plasma euglycemia” value ([9]; glucose clamp in rats, constant insulin infusion rate) was “rapid and sustained reduction in the glucose infusion rate” and the “insulin inhibition of hepatic glucose production” value ([9]; rat, in vivo) was “effective in blocking insulin inhibition of hepatic glucose production”. The “displacement of [125I] rADM binding, potency in words” value ([3]; [125I] rADM displacement) was “less potent”.
Work on Human adrenomedullin [Human ADM] yielded a pIC50 [3] of 8.40 to 8.70.
For “[^125 I]rADM: radioiodinated rat adrenomedullin, radioligand (YRQSMNQGSRSTGCRFGTCTMQKLAHQIYQFTDKDKDGMAPRNKISPQGY; ends and bridges not checked; also: radioiodinated (125I), position not given here; UniProt P43145 94-143, looked up)”, the pKd ([10]; Scatchard transformation, single class of high affinity binding site, read-out: dissociation constant (Kd)) is given as 9.60, the “specific binding as percent of total binding” value ([10]; [125I]rADM, BE-CRLR (#8) cell membranes) is given as 80-90 % of the total binding and the “density of ADM binding sites among rat tissues” value (rat tissues) is given as “lung had the highest density of ADM binding sites”.
In the case of “adrenomedullin (YRQSMNQGSRSTGCRFGTCTMQKLAHQIYQFTDKDKDGMAPRNKISPQGY; ends and bridges not checked; cysteine pairing not given here; UniProt P43145 94-143, looked up) [ADM, vasodilating peptide]”, the “insulin secretion and blood glucose metabolism” value [11] is given as “down-regulate insulin secretion and blood glucose metabolism”, the NO-cGMP system (NO-cGMP system) is given as “activated the NO-cGMP system” and the “response of expressed receptor” value [12] is given as “responds to ADM”. For the same compound, the “c-fos gene expression and AP-I DNA binding activity” value [13] was “induces rapid and transient c-fos gene expression and AP-I DNA binding activity”, the “additive effect between CGRP and ADM on adenylyl cyclase” value [6] was “no additive effect” and the “adenylyl cyclase activity stimulation over basal” value [6] was 60-80 % over basal. The pEC50 [6] was 8.37, the “activation of adenylyl cyclase activity over basal” value [6] was ~ 300 % over basal and the “activation of adenylyl cyclase in vector transfected membranes” value [8] was “did not respond”. The “intracellular Ca++” value ([14]; through the activation of phospholipase C) was “induces a rise in intracellular Ca^++”, the “accumulation of intracellular cAMP” value ([14]; vascular SMC, and bovine EC) was “stimulates the accumulation of intracellular cAMP” and the hypotension [15] was “strong, long-lasting hypotension”. For the same compound, the “affinity of BECRLR, overall conclusion” value ([10]; based on radioligand binding and functional assays) was “higher affinity to ADM”.
With “rat ADM: rat adrenomedullin (YRQSMNQGSRSTGCRFGTCTMQKLAHQIYQFTDKDKDGMAPRNKISPQGY; ends and bridges not checked; cysteine pairing not given here; UniProt P43145 94-143, looked up)” the pIC50 [3] was 8.40 to 8.70.
